These are literature values, as cited in patent US20110268798A1, “ORALLY DISNTEGRATING TABLETS FOR THE TREATMENT OF PAIN” (ADD ADVANCED DRUG DELIVERY TECHNOLOGIES LTD, priority 2009, published 2011).

Assay in data set [1]: not given
The source holds these as a separate data set.

Take `CC(=O)Oc1ccccc1C(=O)O` [Acetylsalicylic acid, 2(acetyloxy)benzoic acid]: the solubility in ether entry is on record as “soluble” and the solubility in water result is given as “slightly soluble”. For the same compound, the solubility in alcohol entry (alcohol) is on record as “freely soluble”. The solubility in chloroform entry (chloroform) is reported as “soluble”. Also, the “stability in air / moisture” value in data set [1] (dry air, moisture) was “stable in dry air but hydrolyses in contact with moisture to acetic and salicylic acids”. The “stability versus pH” value in data set [1] (pH) was “pH-dependent stability profile”. For the same compound, the stability versus temperature entry in data set [1] (temperature) was “sensitive to temperature”.

Consider `CC(=O)Nc1ccc(O)cc1` [Acetaminophen, N-(4-hydroxyphenyl)acetamide], for which the solubility in ether entry was “very slightly soluble” and the solubility in water result is “sparingly soluble”. Under “methylene chloride”, the “solubility in methylene chloride” value is “very slightly soluble”.
